In ChEMBL document CHEMBL5291721, “A preclinical secondary pharmacology resource illuminates target-adverse drug reaction associations of marketed drugs” (Nat Commun, 2023):
One block for each molecule: values may come before it. *1 amine or outer side, *2 acyl side, *3 side chain or, on linkers, in order; H or OH if unused. Where a SMILES comes first, the peptide text is derived from it. Bridges are numbered along the chain shown (N, C = ends). [ ]: non-standard residue; d: D form. The star is where a group is joined. hTyr(3S-OH,4S-OH,3'-OSO3H) = N[C@H](C(=O)O)[C@H](O)[C@@H](O)c1ccc(O)c(OS(=O)(=O)O)c1; Orn(4R-OH,5R-OH) = O=C([C@H](C[C@@H](O)[C@@H](O)N[*:3])N[*:1])[*:2]; Pro(3S-OH,4S-Me) = C[C@H]1CN[C@H](C(=O)O)[C@H]1O; X1 = CCCCCOc1ccc(-c2cc(-c3ccc(C(=O)*)cc3)no2)cc1; Gln(3R-OH) = NC(=O)C[C@@H](O)[C@H](N)C(=O)O; Hyp = O=C(O)[C@@H]1C[C@@H](O)CN1

Tests used:
Progesterone receptor = molecular target: T1, Progesterone receptor (Homo sapiens, UniProt P06401)
T1 sequence (P06401 whole entry): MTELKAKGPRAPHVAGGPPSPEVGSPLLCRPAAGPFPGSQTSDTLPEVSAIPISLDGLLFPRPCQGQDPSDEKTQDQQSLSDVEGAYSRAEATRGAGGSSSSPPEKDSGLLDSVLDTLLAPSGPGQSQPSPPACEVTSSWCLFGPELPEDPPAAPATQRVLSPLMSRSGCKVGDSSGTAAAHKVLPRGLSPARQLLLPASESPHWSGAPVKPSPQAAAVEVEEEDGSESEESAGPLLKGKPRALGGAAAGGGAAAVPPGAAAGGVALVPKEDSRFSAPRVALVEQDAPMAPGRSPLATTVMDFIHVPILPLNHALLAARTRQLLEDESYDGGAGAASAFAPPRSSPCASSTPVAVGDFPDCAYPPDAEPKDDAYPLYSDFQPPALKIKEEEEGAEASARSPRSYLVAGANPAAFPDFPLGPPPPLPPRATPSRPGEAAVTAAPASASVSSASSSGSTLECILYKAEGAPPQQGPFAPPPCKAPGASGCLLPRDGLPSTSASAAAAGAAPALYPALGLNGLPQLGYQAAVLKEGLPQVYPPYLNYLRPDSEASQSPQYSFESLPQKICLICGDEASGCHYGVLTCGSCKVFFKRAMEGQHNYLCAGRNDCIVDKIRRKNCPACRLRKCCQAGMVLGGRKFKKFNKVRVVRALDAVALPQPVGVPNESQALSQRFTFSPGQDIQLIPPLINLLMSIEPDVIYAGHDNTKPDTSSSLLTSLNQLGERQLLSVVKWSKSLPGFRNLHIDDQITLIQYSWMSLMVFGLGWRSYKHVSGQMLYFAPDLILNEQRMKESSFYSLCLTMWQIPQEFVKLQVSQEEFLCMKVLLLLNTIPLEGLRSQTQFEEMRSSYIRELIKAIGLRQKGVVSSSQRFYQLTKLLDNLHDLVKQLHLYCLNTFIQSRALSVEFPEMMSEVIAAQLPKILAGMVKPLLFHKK

[1] = molecular target: T2, Alpha-2A adrenergic receptor (Homo sapiens, UniProt P08913)
T2 sequence (P08913 whole entry): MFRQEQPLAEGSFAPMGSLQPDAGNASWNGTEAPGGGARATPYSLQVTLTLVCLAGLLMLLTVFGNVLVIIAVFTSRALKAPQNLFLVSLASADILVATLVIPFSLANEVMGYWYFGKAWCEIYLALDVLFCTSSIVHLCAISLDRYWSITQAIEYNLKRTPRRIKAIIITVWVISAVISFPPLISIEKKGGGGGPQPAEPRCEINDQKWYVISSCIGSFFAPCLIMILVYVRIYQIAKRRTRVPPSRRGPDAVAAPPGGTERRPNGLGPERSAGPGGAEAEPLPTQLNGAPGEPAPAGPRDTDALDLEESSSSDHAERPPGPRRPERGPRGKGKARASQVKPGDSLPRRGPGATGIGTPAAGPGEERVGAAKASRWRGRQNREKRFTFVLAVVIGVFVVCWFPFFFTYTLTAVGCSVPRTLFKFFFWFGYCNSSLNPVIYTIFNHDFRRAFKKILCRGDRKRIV

Histamine H2 receptor = Histamine H2 receptor (Homo sapiens, UniProt P25021); assay type: functional, cell-based
[2] = molecular target: Neuronal acetylcholine receptor subunit alpha-4 (Homo sapiens, UniProt P43681)
D(3) dopamine receptor = D(3) dopamine receptor (Homo sapiens, UniProt P35462)
[3] = molecular target: Kappa-type opioid receptor (Homo sapiens, UniProt P41145)
[4] = molecular target: T3, 5-hydroxytryptamine receptor 3A (Homo sapiens, UniProt P46098); assay type: functional
T3 sequence (P46098 whole entry): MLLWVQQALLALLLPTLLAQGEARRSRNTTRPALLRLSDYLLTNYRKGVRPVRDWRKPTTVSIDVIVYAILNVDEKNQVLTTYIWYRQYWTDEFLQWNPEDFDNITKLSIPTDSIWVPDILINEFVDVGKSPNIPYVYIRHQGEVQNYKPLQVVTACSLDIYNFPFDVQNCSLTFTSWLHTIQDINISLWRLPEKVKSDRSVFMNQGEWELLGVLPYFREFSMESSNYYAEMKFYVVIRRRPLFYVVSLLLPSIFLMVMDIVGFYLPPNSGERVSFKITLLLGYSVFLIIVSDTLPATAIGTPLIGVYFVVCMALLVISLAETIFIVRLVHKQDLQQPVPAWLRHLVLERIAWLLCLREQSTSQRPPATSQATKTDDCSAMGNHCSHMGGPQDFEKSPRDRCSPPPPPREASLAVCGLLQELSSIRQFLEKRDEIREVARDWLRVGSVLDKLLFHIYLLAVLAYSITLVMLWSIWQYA

[5] = molecular target: Gamma-aminobutyric acid receptor subunit alpha-1 (Rattus norvegicus, UniProt P62813)
[6] = molecular target: T4, Gastrin/cholecystokinin type B receptor (Homo sapiens, UniProt P32239)
T4 sequence (P32239 whole entry): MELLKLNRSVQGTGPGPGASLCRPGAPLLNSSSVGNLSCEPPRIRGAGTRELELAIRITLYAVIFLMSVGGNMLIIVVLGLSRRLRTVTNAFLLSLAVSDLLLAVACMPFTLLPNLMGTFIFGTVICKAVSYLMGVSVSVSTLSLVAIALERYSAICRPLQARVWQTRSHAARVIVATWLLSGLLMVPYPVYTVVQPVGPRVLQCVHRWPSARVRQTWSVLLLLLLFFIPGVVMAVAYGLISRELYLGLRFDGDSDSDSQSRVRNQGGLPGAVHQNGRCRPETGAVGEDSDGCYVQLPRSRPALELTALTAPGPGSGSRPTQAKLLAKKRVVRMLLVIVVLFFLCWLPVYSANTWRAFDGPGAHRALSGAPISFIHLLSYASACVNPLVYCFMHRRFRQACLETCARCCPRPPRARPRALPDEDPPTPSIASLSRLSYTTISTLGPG

D(1A) dopamine receptor = D(1A) dopamine receptor (Homo sapiens, UniProt P21728); assay type: functional, cell-based
Cannabinoid receptor 1 = Cannabinoid receptor 1 (Homo sapiens, UniProt P21554); assay type: functional, cell-based
Further: assay procedure not described here.

Gamma-aminobutyric acid receptor subunit alpha-1, sequence (P62813 whole entry): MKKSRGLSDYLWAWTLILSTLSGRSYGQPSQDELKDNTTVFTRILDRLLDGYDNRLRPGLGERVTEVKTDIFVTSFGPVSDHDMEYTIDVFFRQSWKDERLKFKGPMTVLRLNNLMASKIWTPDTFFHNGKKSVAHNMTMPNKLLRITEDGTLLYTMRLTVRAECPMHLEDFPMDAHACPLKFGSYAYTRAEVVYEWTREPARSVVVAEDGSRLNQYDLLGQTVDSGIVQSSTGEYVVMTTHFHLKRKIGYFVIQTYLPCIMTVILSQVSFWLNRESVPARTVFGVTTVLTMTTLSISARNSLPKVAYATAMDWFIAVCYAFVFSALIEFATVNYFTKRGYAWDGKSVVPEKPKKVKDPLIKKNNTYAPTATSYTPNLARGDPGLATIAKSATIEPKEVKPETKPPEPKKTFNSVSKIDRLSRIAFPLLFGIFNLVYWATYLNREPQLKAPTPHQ
Kappa-type opioid receptor, sequence (P41145 whole entry): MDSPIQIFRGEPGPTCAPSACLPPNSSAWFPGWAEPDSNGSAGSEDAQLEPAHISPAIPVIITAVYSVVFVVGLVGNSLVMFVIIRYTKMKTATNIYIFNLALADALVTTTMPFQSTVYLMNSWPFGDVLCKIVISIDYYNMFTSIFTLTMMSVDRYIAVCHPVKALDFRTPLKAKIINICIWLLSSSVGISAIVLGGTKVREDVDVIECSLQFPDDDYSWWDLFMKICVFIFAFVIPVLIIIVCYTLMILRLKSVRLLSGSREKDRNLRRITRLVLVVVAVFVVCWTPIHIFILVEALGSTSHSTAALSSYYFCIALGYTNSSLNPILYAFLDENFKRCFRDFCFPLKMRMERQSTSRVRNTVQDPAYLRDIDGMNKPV
Histamine H2 receptor, sequence (P25021 whole entry): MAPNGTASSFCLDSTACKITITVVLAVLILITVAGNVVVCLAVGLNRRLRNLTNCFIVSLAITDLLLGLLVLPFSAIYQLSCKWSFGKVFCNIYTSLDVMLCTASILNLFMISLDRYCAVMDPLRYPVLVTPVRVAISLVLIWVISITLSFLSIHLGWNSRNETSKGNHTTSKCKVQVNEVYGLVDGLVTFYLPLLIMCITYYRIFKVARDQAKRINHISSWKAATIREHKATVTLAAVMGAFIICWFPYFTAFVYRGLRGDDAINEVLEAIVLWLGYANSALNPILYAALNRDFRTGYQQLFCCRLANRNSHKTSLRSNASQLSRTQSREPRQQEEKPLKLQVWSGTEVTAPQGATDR
Neuronal acetylcholine receptor subunit alpha-4, sequence (P43681 whole entry): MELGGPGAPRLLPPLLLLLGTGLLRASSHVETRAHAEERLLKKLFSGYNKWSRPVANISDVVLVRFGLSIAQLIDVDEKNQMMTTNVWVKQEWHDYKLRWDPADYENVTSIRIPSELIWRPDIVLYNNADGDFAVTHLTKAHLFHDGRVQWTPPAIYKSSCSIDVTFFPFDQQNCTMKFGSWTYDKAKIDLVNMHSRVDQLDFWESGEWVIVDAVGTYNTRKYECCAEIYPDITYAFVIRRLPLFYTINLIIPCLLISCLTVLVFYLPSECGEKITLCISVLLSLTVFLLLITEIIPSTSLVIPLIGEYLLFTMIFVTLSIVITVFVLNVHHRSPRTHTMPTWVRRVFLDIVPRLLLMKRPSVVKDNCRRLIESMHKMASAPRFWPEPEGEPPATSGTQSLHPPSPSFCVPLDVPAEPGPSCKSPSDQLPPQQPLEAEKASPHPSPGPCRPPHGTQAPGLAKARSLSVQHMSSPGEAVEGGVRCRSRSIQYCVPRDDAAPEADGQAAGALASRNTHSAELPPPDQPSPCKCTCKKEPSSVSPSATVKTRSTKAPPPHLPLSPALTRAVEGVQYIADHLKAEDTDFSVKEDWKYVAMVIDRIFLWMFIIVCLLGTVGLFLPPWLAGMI
D(1A) dopamine receptor, sequence (P21728 whole entry): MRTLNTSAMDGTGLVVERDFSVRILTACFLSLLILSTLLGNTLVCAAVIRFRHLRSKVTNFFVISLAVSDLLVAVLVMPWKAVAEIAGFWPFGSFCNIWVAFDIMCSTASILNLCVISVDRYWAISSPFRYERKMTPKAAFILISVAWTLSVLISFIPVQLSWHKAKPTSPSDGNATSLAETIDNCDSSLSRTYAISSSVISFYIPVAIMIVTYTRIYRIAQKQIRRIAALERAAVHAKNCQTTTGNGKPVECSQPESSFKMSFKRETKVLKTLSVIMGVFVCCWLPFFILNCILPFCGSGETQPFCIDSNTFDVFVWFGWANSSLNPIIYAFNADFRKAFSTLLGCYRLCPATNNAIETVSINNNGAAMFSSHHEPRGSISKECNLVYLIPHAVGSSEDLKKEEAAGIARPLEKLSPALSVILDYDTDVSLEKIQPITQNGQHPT
Cannabinoid receptor 1, sequence (P21554 whole entry): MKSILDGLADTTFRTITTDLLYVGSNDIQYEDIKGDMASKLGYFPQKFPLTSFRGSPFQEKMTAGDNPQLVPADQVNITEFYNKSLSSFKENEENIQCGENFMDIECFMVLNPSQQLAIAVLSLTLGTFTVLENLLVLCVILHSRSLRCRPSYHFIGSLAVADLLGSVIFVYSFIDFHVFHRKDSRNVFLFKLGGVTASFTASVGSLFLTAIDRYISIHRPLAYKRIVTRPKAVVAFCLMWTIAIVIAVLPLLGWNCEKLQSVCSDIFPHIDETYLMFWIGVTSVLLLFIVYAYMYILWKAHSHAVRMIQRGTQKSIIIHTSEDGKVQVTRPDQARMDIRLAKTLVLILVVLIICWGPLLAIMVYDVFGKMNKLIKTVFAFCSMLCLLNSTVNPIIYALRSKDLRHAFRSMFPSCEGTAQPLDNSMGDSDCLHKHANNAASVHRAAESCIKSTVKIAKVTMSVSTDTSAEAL
D(3) dopamine receptor, sequence (P35462 whole entry): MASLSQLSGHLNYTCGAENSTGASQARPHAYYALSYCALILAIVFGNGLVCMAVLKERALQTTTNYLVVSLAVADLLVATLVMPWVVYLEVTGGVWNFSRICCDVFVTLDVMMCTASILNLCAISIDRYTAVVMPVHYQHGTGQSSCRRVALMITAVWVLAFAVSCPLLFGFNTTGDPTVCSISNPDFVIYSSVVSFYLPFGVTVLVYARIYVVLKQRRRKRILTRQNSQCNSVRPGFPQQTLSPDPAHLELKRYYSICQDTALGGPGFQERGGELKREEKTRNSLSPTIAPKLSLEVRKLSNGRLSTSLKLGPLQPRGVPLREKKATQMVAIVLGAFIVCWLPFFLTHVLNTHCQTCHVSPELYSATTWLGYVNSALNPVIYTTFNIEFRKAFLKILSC

SMILES: N=C(N)NCc1cccc([123I])c1 [IOBENGUANE I 123]
- AC50 (Progesterone receptor): > 30 µM
- AC50 [1]: 0.488 µM

SMILES: CC(C)(N)C(=O)N[C@H](Cc1c[nH]c2ccccc12)C(=O)N[C@H](Cc1c[nH]c2ccccc12)NC=O [MACIMORELIN]
- AC50 (Progesterone receptor): > 30 µM
- AC50 [1]: > 30 µM

SMILES: C=C1c2c(Cl)ccc(O)c2C(=O)C2=C(O)[C@]3(O)C(=O)C(C(N)=O)=C(O)[C@@H](N(C)C)[C@@H]3[C@@H](O)[C@H]12 [MECLOCYCLINE]
- AC50 (Progesterone receptor): > 30 µM
- AC50 [1]: > 30 µM

SMILES: Cc1cc2c(OCC(O)CNC(C)C)cccc2[nH]1 (stereo not drawn) [MEPINDOLOL]
- AC50 (Progesterone receptor): > 30 µM
- AC50 [1]: 12.3 µM

SMILES: CCCCCOc1ccc(-c2cc(-c3ccc(C(=O)N[C@H]4C[C@@H](O)[C@@H](O)NC(=O)[C@@H]5[C@@H](O)[C@@H](C)CN5C(=O)[C@H]([C@H](O)CC(N)=O)NC(=O)[C@H]([C@H](O)[C@@H](O)c5ccc(O)c(OS(=O)(=O)O)c5)NC(=O)[C@@H]5C[C@@H](O)CN5C(=O)[C@H]([C@@H](C)O)NC4=O)cc3)no2)cc1 [MICAFUNGIN] (X1-[Orn(4R-OH,5R-OH)]T[Hyp][hTyr(3S-OH,4S-OH,3'-OSO3H)][Gln(3R-OH)][Pro(3S-OH,4S-Me)]; lactam 1-C)
- AC50 (Progesterone receptor): 3.87 µM
- AC50 [1]: > 30 µM

SMILES: CCOc1cc(N)c(Cl)cc1C(=O)NCC1CN(Cc2ccc(F)cc2)CCO1 (stereo not drawn) [MOSAPRIDE]
- AC50 (Progesterone receptor): > 30 µM
- AC50 [1]: 3.01 µM

SMILES: CCOc1ccc2ccccc2c1C(=O)N[C@@H]1C(=O)N2[C@@H]1SC(C)(C)[C@@H]2C(=O)O [NAFCILLIN]
- AC50 (Progesterone receptor): > 30 µM
- AC50 [1]: > 30 µM

SMILES: CN1CCC[C@H]1c1cccnc1 [NICOTINE]
- AC50 (Progesterone receptor): > 30 µM
- AC50 [1]: > 30 µM

SMILES: C#C[C@]1(O)CC[C@H]2[C@@H]3CCC4=C(CCC(=O)C4)[C@H]3CC[C@@]21C [NORETHYNODREL]
- AC50 [1]: > 30 µM

- AC50 (Progesterone receptor): > 30 µM
- AC50 [1]: > 30 µM
SMILES: CCCCCCCCCCC[C@@H](C[C@@H]1OC(=O)[C@H]1CCCCCC)OC(=O)[C@H](CC(C)C)NC=O [ORLISTAT]

SMILES: O=C1[C@H]2CCCC[C@H]2C(=O)N1CCCCN1CCN(c2nsc3ccccc23)CC1 [PEROSPIRONE]
- AC50 (Progesterone receptor): > 30 µM
- AC50 [1]: 0.22 µM

SMILES: CN(C)CCC(c1ccccc1)c1ccccn1 (stereo not drawn) [PHENIRAMINE]
- AC50 (Progesterone receptor): > 30 µM
- AC50 [1]: > 30 µM

SMILES: CNC[C@H](O)c1cccc(O)c1 [PHENYLEPHRINE]
- AC50 (Histamine H2 receptor): > 10 µM
- AC50 [2]: > 10 µM
- AC50 (D(3) dopamine receptor): 4.1 µM
- AC50 [3]: > 10 µM
- AC50 (Progesterone receptor): > 30 µM
- AC50 [4]: > 10 µM
- AC50 [5]: > 30 µM
- AC50 [6]: > 30 µM
- AC50 (D(1A) dopamine receptor): 3.13 µM
- AC50 (Cannabinoid receptor 1): > 30 µM

SMILES: CC(C)COc1ccc(CNC(=O)N(Cc2ccc(F)cc2)C2CCN(C)CC2)cc1 [PIMAVANSERIN]
- AC50 (Progesterone receptor): > 30 µM
- AC50 [1]: > 30 µM

SMILES: CC(C)(C)C(=O)NCCCC(=O)O [PIVAGABINE]
- AC50 [1]: > 30 µM

- AC50 (Histamine H2 receptor): > 30 µM
- AC50 [2]: > 30 µM
- AC50 (D(3) dopamine receptor): > 30 µM
- AC50 [3]: 29 µM
- AC50 [4]: > 30 µM
- AC50 [5]: > 30 µM
- AC50 [6]: > 10 µM
- AC50 (D(1A) dopamine receptor): > 30 µM
- AC50 (Cannabinoid receptor 1): > 30 µM
SMILES: CC(C)N(CCCCOCC(=O)NS(C)(=O)=O)c1cnc(-c2ccccc2)c(-c2ccccc2)n1 [SELEXIPAG]

SMILES: CC(=O)S[C@@H]1CC2=CC(=O)CC[C@]2(C)[C@H]2CC[C@@]3(C)[C@@H](CC[C@@]34CCC(=O)O4)[C@H]12 [SPIRONOLACTONE]
- AC50 (Histamine H2 receptor): > 10 µM
- AC50 [2]: > 30 µM
- AC50 (D(3) dopamine receptor): > 30 µM
- AC50 [3]: 14.8 µM
- AC50 [4]: > 30 µM
- AC50 [5]: > 10 µM
- AC50 [6]: > 30 µM
- AC50 (D(1A) dopamine receptor): > 30 µM
- AC50 (Cannabinoid receptor 1): > 30 µM

- AC50 (Histamine H2 receptor): > 30 µM
- AC50 [2]: > 30 µM
- AC50 (D(3) dopamine receptor): > 30 µM
- AC50 [3]: > 30 µM
- AC50 [4]: > 30 µM
- AC50 [5]: > 30 µM
- AC50 [6]: > 30 µM
- AC50 (D(1A) dopamine receptor): > 30 µM
- AC50 (Cannabinoid receptor 1): > 30 µM
SMILES: Cc1cc(CC(=O)O)n(C)c1C(=O)c1ccc(Cl)cc1 [ZOMEPIRAC]
